This note sets out measurements from PubChem BioAssay (NCI).

Common to all, as to experiment: DTP human tumour cell line panel, 48 h
Assay [1] concerns DU-145 prostate.
Assay [2] relates to HS 578T breast.
In assay [3] the test system is M14 melanoma.
Assay [4] deals with OVCAR-3 ovarian.
Assay [5] has as its system PC-3 prostate.
Assay [6] relates to RPMI-8226 leukemia.
Assay [7] concerns SF-268 CNS.
Assay [8] deals with SK-MEL-2 melanoma.
Assay [9] concerns SK-MEL-5 melanoma.
The test system of assay [10] is U251 CNS.

Each structure is given as a SMILES string. Several values for one entry are separate records, joined by “and”; a condition that tells them apart may be missing. Equal values may be shown once.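 How tested: cells in 96-well plates exposed to compound for 48 hours at five concentrations. GI50 marks 50% less growth. At the TGI there is no net growth.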 Where only a bound is given, the exact number is not on record here.

In general, GI50 refers to the concentration giving 50% growth inhibition. In general, TGI refers to the concentration at which net growth stops. High values mean less potent growth arrest, low ones more potent growth arrest.

In the case of `C=C(C)C(=O)Nc1ccc(NC(C)C)cc1`, the GI50 in [1], in assay [2], in assay [3], in assay [4], in assay [5] and in assay [6] was > 100 µM each time. Further, the GI50 in assay [7], in assay [8], in [9] and in assay [10] was > 100 µM throughout. The TGI in assay [1], in assay [2], in [3], in assay [4], in [5] and in [6] was > 100 µM each time. Also, the TGI in assay [7], in [8], in assay [9] and in assay [10] was > 100 µM throughout.

In the case of `COc1ccc2cc(C(=O)/C=C/c3ccc(Cl)cc3Cl)ccc2c1`, the GI50 in assay [1] is 23 µM; in assay [2] it was 28.1 µM; in [3], 8.75 µM; in assay [4] it was 16.8 µM; in [5], 30.8 µM; in assay [6] it was 6.81 µM. Besides, the GI50 in [7] was > 100 µM; in assay [8] it was 44.4 µM; in [9] it was 12.1 µM; in assay [10], 16.7 µM. In addition, the TGI in [1] was 62.1 µM; in assay [2], 73.7 µM; in assay [3], 28 µM; in [4], 43.9 µM; in assay [5] it was > 100 µM; in [6] it was > 100 µM. Further, the total growth inhibition concentration (TGI) in [7] was > 100 µM; in [8] it was 95.7 µM; in [9], 29.9 µM; in [10] it was 36.2 µM.

Turning to `COc1ccc(-c2c[nH]c(C(=O)O)c2-c2cc(OC)c(OC)c(OC)c2)cc1`, the GI50 in assay [1] was 4.27 µM; in [2] it was 3.42 µM; in [3], 3.65 µM; in assay [4], 2.74 µM; in [5] it was 4.46 µM; in assay [6] it was 4.24 µM. In addition, the GI50 in assay [7] was > 100 µM; in [8], 5.45 µM; in assay [9], 3.5 µM; in [10] it was 4.99 µM. The TGI in assay [1] is > 100 µM; in [2], > 100 µM; in assay [3], > 100 µM; in assay [4] it was 8.05 µM; in [5], > 100 µM; in assay [6] it was > 100 µM. Moreover, the TGI in assay [7], in assay [8], in assay [9] and in assay [10] was > 100 µM in each case.

Take `O=C1c2ccccc2C(O)(O)C1(O)C1(O)C(=O)c2ccccc2C1(O)O` (stereo unspecified): the TGI in [1] was > 100 µM; in assay [2] it was > 100 µM; in [3], > 100 µM; in [4], 65.9 µM; in [5], > 100 µM; in assay [6], > 100 µM. The TGI was > 100 µM in assay [7], > 100 µM in assay [8], 39.4 µM in assay [9] and > 100 µM in [10].

In the case of `CC1CCC(NC(=O)N(CCCl)N=O)CC1` (stereo unspecified), the TGI in [1] was 227 µM; in [2], 155 µM; in assay [3] it was 30.5 µM and 66.5 µM; in assay [4] it was 70.4 µM; in assay [5], 96.6 µM; in [6], 37 µM and 103 µM. The TGI in [7] is 39.8 µM and 89.5 µM; in assay [8], 48.1 µM and 91.2 µM; in assay [9], > 87.5 µM; in assay [10], 65.9 µM. For the same compound, the GI50 in assay [3] is 14.3 µM; in assay [6], 12.5 µM; in [7] it was 14.9 µM; in assay [8], 20.4 µM; in assay [9], 29.8 µM; in [10], 20.8 µM.

For the compound `Cc1ccc(S(=O)(=O)N/N=C/c2c(O)ccc3ccccc23)cc1`, the TGI is > 100 µM in assay [1]; 46.8 µM in assay [2]; 64.9 µM in assay [3]; 44.2 µM in [4]; 58.6 µM in assay [5]; > 100 µM in assay [6]. Besides, the TGI in assay [7] is > 100 µM; in assay [8] it was 49.1 µM; in assay [9] it was > 100 µM; in assay [10] it was > 100 µM.

As for `CCN(CC)CCCC(C)Nc1ccnc2cc(Oc3ccccc3)ccc12` (stereo unspecified), the GI50 in assay [1] is 5.73 µM and 54.6 µM; in assay [2], 5.5 µM and 16.7 µM; in assay [3], 1.77 µM and 1.79 µM; in [4], 13.7 µM and 22 µM; in assay [5] it was 8.89 µM and 19.3 µM; in assay [6], 5.02 µM and 5.36 µM. The GI50 is 6.48 µM and 8.36 µM in assay [7]; 3.05 µM and 2.36 µM in assay [8]; 1.69 µM and 1.8 µM in [9]; 2.71 µM and 5.51 µM in assay [10]. Also, the TGI in assay [1] was 22.4 µM and > 100 µM; in assay [2] it was 24.3 µM and 56.5 µM; in [3], 3.5 µM and 3.35 µM; in assay [4], 34.2 µM and > 100 µM; in assay [5], 35.5 µM and > 100 µM; in assay [6], 13.9 µM and 28.2 µM. In addition, the TGI is 19.9 µM and 92.4 µM in assay [7]; 8.96 µM and 5.68 µM in assay [8]; 3.22 µM and 3.37 µM in assay [9]; 9.31 µM and 19.8 µM in assay [10].

Regarding `Cc1c(C(N)=O)sc2c1C(=O)N(Cc1ccccc1)C1=NN=C(c3ccc(Cl)cc3)CN12`, the GI50 is 3.44 µM in assay [1]; 5.88 µM in [2]; 2.38 µM in [3]; 3.75 µM in [4]; 3.84 µM in [5]; 4.56 µM in assay [6]. Besides, the GI50 is 2.63 µM in assay [7], 6.1 µM in [8], 1.84 µM in assay [9] and 2.39 µM in assay [10]. The TGI in assay [1] was 14.5 µM; in assay [2] it was 34.2 µM; in [3], 6.75 µM; in assay [4], 16.4 µM; in [5], 20.9 µM; in assay [6], > 100 µM. Also, the concentration for total growth inhibition (TGI) in [7] amounted to 14.1 µM; in assay [8], 18.6 µM; in assay [9], 4.76 µM; in assay [10], 13.2 µM.

On to `CC(C)(C)OC(=O)N1CCN(CCn2cc(C(F)(F)F)c3c(Cl)ncnc32)CC1`, for which the GI50 in assay [1] was 2.96 µM; in assay [2], 2.84 µM; in assay [3], 1.77 µM; in assay [4], 1.88 µM; in [5], 1.79 µM; in assay [6], 3.77 µM. Further, the GI50 was 1.82 µM in [7], 1.93 µM in [8], 4.19 µM in assay [9] and 2.01 µM in assay [10]. Moreover, the concentration for total growth inhibition (TGI) in assay [1] amounted to 9.2 µM; in [2], 8.29 µM; in assay [3], 3.49 µM; in assay [4], 3.66 µM; in assay [5], 3.43 µM; in assay [6] it was 12.3 µM. The TGI in assay [7] came to 3.61 µM; in assay [8] it was 3.9 µM; in [9], 14.5 µM; in assay [10], 3.57 µM.

In the case of `O=C1Nc2ccccc2/C1=C/C(=O)c1coc2c1C(=O)c1ccccc1C2=O`, the GI50 in assay [1], in assay [2], in assay [3], in assay [4], in [5] and in assay [6] was > 100 µM each time. The GI50 in assay [7] is > 100 µM; in assay [8] it was > 100 µM; in assay [9], 30.4 µM; in [10] it was > 100 µM. Also, the TGI in assay [1], in assay [2], in [3], in assay [4], in assay [5] and in assay [6] was > 100 µM throughout. Further, the TGI in assay [7], in [8], in [9] and in [10] was > 100 µM throughout.

Consider `COc1ccc(C(=O)OC2C(OC3C(O)COC(O[C@H]4C[C@H]5[C@@H]6CC=C7C[C@@H](O)CC[C@]7(C)[C@H]6CC[C@]5(C)[C@H]4[C@H](C)C(=O)CCC(C)C)C3OC(N)=O)OCC(O)C2O)cc1` (stereo partly specified), for which the GI50 was 0.0285 µM in assay [1]; < 0.003 µM in assay [2]; 0.036 µM in [3]; 0.755 µM in assay [4]; 0.0073 µM in assay [5]; < 0.003 µM in [6]. The GI50 is 0.0427 µM in assay [7], 0.00527 µM in [8], 0.114 µM in [9] and < 0.003 µM in assay [10]. Also, the TGI in [1] stood at 5.34 µM; in [2] it was 0.37 µM; in [3] it was 0.183 µM; in [4], 5.75 µM; in assay [5] it was 0.473 µM; in assay [6] it was 0.00997 µM. The TGI in [7] was 1.49 µM; in assay [8], 0.242 µM; in assay [9], 0.615 µM; in assay [10], 3.32 µM.

Regarding `COc1c(C)c2c(c(O)c1C/C=C(\C)CCC(=O)O)C(=O)OC2`, the GI50 was 0.57 µM in assay [1]; 0.853 µM in assay [2]; 0.343 µM in assay [3]; 0.286 µM in [4]; 0.61 µM in assay [5]; 0.518 µM in assay [6]. The GI50 in [7] is 0.578 µM; in assay [8], 2 µM; in [9] it was 0.411 µM; in assay [10], 0.0905 µM. The total growth inhibition concentration (TGI) in assay [1], in [2], in assay [3], in [4], in [5] and in assay [6] was > 100 µM in each case. The TGI in assay [7], in assay [8], in assay [9] and in assay [10] was > 100 µM throughout.
